Some test systems named below: UACC-257 melanoma; NCI-H522 lung; NCI-H23 lung; KM20L2 colon; IGROV1 ovarian; DMS 273 small cell lung; DLD-1 colon; NCI-H460 lung; SF-268 CNS; SW-620 colon; LXFL 529 NSCLC.
What all share (experiment): NCI anticancer screen, dose series, 48 h

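Results reflect a 48-hour exposure of cells in 96-well plates to compound at five concentrations. GI50 marks 50% less growth. TGI is the concentration that stops growth completely.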

With `COc1ccc2nc3cccc(C(=O)NCCN(C)C)c3nc2c1`, the TGI is 7.74 µM with UACC-257 melanoma; more than 100 µM in the experiment with NCI-H522 lung; 3.41 µM in the experiment on NCI-H23 lung; 6.46 µM with KM20L2 colon; more than 48.2 µM with IGROV1 ovarian; more than 100 µM in the experiment with DMS 273 small cell lung. Also, the TGI in the experiment on DLD-1 colon worked out at 5.12 µM.

Consider `CC1=C(C(=O)Nc2ccccc2)C(c2ccc(C(C)C)cc2)C(C(=O)Nc2ccccc2)=C(C)N1`, for which the TGI was 55.4 µM in the experiment on NCI-H460 lung; 45.4 µM with NCI-H522 lung; more than 58.5 µM in the experiment on NCI-H23 lung; 31.7 µM with KM20L2 colon; more than 100 µM in the experiment with SF-268 CNS; more than 100 µM with IGROV1 ovarian. The TGI with SW-620 colon was 41.5 µM; in the experiment on LXFL 529 NSCLC it was more than 67.7 µM; in the experiment with DLD-1 colon it was more than 100 µM.

As for `CC(=O)O[C@H]1C=CC23OC(=O)[C@]1(C)[C@H]2[C@H](C(=O)O)C12CC(=O)[C@@](CO)(CC[C@H]13)C2`, the TGI in the experiment with UACC-257 melanoma, with NCI-H460 lung, in the experiment on NCI-H522 lung, in the experiment with NCI-H23 lung, with KM20L2 colon and in the experiment with SF-268 CNS was more than 100 µM throughout. Further, the TGI in the experiment with IGROV1 ovarian, in the experiment with DMS 273 small cell lung, with SW-620 colon, in the experiment with LXFL 529 NSCLC and with DLD-1 colon was more than 100 µM each time.

For `C[n+]1c(N)n(C(=O)OCc2ccccc2)c(=O)c2c1ncn2C(=O)OCc1ccccc1`, the TGI in the experiment on UACC-257 melanoma, with NCI-H460 lung, in the experiment with NCI-H522 lung, in the experiment on NCI-H23 lung, with KM20L2 colon and with SF-268 CNS was more than 100 µM throughout. Besides, the TGI in the experiment on IGROV1 ovarian, in the experiment on DMS 273 small cell lung, in the experiment on SW-620 colon, in the experiment with LXFL 529 NSCLC and in the experiment with DLD-1 colon was more than 100 µM throughout.

As to `COC(=O)Cc1nc2ccccc2o1`, the TGI in the experiment on UACC-257 melanoma is more than 100 µM; in the experiment with NCI-H460 lung, more than 100 µM; in the experiment with NCI-H522 lung it was more than 100 µM; with NCI-H23 lung, more than 100 µM; with KM20L2 colon it was 46.4 µM; in the experiment on SF-268 CNS it was more than 100 µM. Besides, the TGI in the experiment on IGROV1 ovarian, in the experiment on DMS 273 small cell lung, in the experiment on SW-620 colon, in the experiment on LXFL 529 NSCLC and in the experiment with DLD-1 colon was more than 100 µM throughout.

For `COc1ccc(C(=O)O/N=C2/CCC/C2=C\c2ccccc2)cc1`, the TGI with UACC-257 melanoma, in the experiment on NCI-H460 lung, in the experiment with NCI-H522 lung, in the experiment on NCI-H23 lung, in the experiment with KM20L2 colon and in the experiment with SF-268 CNS was more than 100 µM each time. Moreover, the TGI with IGROV1 ovarian, with DMS 273 small cell lung, with SW-620 colon, in the experiment on LXFL 529 NSCLC and with DLD-1 colon was more than 100 µM in each case.

For `COc1ccc(C2=NOP(c3ccccc3)(c3ccccc3)(c3ccccc3)C2)cc1`, the TGI with UACC-257 melanoma was 99.2 µM; in the experiment with NCI-H460 lung it was more than 45.1 µM; in the experiment with NCI-H522 lung it was 25.1 µM; in the experiment on NCI-H23 lung it was more than 72.5 µM; in the experiment with KM20L2 colon, more than 76.2 µM; in the experiment with SF-268 CNS, more than 100 µM. In addition, the TGI in the experiment with IGROV1 ovarian is more than 100 µM; with DMS 273 small cell lung, more than 47.6 µM; in the experiment on SW-620 colon, more than 56.2 µM; in the experiment on LXFL 529 NSCLC, more than 56.7 µM; in the experiment with DLD-1 colon it was more than 61.7 µM.

On to `COc1cc(C2c3cc4c(cc3[C@@H](Nc3ccc(N)cc3)C3COC(=O)[C@H]23)OCO4)cc(OC)c1O` (stereo partly drawn), for which the TGI with UACC-257 melanoma stood at 28 µM; in the experiment with NCI-H460 lung it was 2.36 µM; with NCI-H522 lung it was 6.57 µM; in the experiment with NCI-H23 lung, 4.85 µM; in the experiment on KM20L2 colon it was 21.4 µM; in the experiment on SF-268 CNS, 19.3 µM. For the same compound, the TGI in the experiment on IGROV1 ovarian was found to be 16.4 µM; with DMS 273 small cell lung, 5.39 µM; with SW-620 colon, 24.5 µM; with LXFL 529 NSCLC it was 31 µM; in the experiment with DLD-1 colon it was 22.2 µM. Also, the GI50 with NCI-H460 lung was 0.139 µM; with NCI-H522 lung, 0.789 µM; in the experiment with NCI-H23 lung, 0.415 µM; in the experiment on SF-268 CNS it was 0.89 µM; in the experiment on SW-620 colon, 0.823 µM.

In the case of `Cn1cc(NC(=O)c2cc(NC(=O)CCCCCCC(=O)Nc3cc(C(=O)Nc4cc(C(=O)NCCC(=N)N)n(C)c4)n(C)c3)cn2C)cc1C(=O)NCCC(=N)N`, the TGI was 5.98 µM with UACC-257 melanoma; 21.4 µM with NCI-H460 lung; 15.3 µM in the experiment with NCI-H23 lung; more than 100 µM in the experiment with KM20L2 colon; more than 100 µM in the experiment on SF-268 CNS; 12.8 µM in the experiment on IGROV1 ovarian. In addition, the TGI is 12.7 µM in the experiment with DMS 273 small cell lung, more than 100 µM with SW-620 colon, 38.4 µM in the experiment on LXFL 529 NSCLC and more than 100 µM in the experiment on DLD-1 colon.

With `Nc1ccc(C(=O)N/C(=C\c2cccc([N+](=O)[O-])c2)c2nc3c4c(ccc3[nH]2)C(=O)c2ccccc2C4=O)cc1`, the TGI in the experiment on UACC-257 melanoma was more than 100 µM; in the experiment with NCI-H460 lung, more than 100 µM; in the experiment on NCI-H522 lung, 71.2 µM; in the experiment with NCI-H23 lung, more than 100 µM; in the experiment on KM20L2 colon it was more than 100 µM; in the experiment with SF-268 CNS it was more than 100 µM. Also, the TGI in the experiment with IGROV1 ovarian, with DMS 273 small cell lung, with SW-620 colon, in the experiment with LXFL 529 NSCLC and with DLD-1 colon was more than 100 µM in each case.

For the compound `CC(C)(C)OC(=O)N1N=NC2C3OC(CC3=O)C21` (stereo not drawn), the TGI with UACC-257 melanoma, in the experiment with NCI-H460 lung, in the experiment on NCI-H522 lung, with NCI-H23 lung, with KM20L2 colon and in the experiment with SF-268 CNS was more than 100 µM each time. Further, the TGI with IGROV1 ovarian, in the experiment on DMS 273 small cell lung, in the experiment with SW-620 colon, with LXFL 529 NSCLC and with DLD-1 colon was more than 100 µM throughout.

Consider `O=C(/C(=C/c1ccccc1)c1ccccc1)N1c2ccccc2CC1c1c[nH]c2ccccc12` (stereo not drawn), for which the TGI in the experiment on UACC-257 melanoma, in the experiment on NCI-H460 lung, with NCI-H522 lung, with NCI-H23 lung, in the experiment on KM20L2 colon and in the experiment on IGROV1 ovarian was more than 100 µM throughout. In addition, the TGI with DMS 273 small cell lung, in the experiment with SW-620 colon, in the experiment on LXFL 529 NSCLC and with DLD-1 colon was more than 100 µM each time.

As to `COc1ccc2c(c1)OCCC1=C2SCC2(C)CCN=C12` (stereo not drawn), the TGI in the experiment on NCI-H460 lung, with NCI-H522 lung, in the experiment on NCI-H23 lung, with KM20L2 colon, in the experiment on SF-268 CNS and with IGROV1 ovarian was more than 100 µM in each case. Further, the TGI in the experiment with DMS 273 small cell lung, in the experiment on SW-620 colon, in the experiment on LXFL 529 NSCLC and in the experiment on DLD-1 colon was more than 100 µM in each case.

Regarding `CN(C)CCNc1nc(-c2cccs2)cc(-c2cccs2)n1`, the TGI in the experiment on UACC-257 melanoma worked out at 24.2 µM; with NCI-H460 lung it was 18.3 µM; in the experiment with NCI-H23 lung it was 25.7 µM; in the experiment on IGROV1 ovarian, 69.2 µM; in the experiment on DMS 273 small cell lung, 24.4 µM; in the experiment on SW-620 colon it was 29.1 µM. The figures for the TGI in the experiment on LXFL 529 NSCLC and in the experiment with DLD-1 colon were 28.1 µM and 55.1 µM, respectively.

Consider `OCC(O)C(OC1OC(CO)C(O)C(O)C1O)c1nn(-c2ccccc2)c2nc3cc(Cl)ccc3nc12` (stereo not drawn), for which the TGI in the experiment on UACC-257 melanoma, in the experiment with NCI-H460 lung, with NCI-H522 lung, in the experiment on NCI-H23 lung, with KM20L2 colon and in the experiment on SF-268 CNS was more than 100 µM in each case. Further, the TGI in the experiment with LXFL 529 NSCLC and in the experiment on DLD-1 colon was more than 100 µM each time.

Take `NCP(=O)(O)OCC(=O)O`: the TGI with UACC-257 melanoma, in the experiment with NCI-H460 lung, in the experiment with NCI-H522 lung, in the experiment on NCI-H23 lung, in the experiment with SF-268 CNS and with IGROV1 ovarian was more than 100 µM in each case. The TGI in the experiment on DMS 273 small cell lung, in the experiment on SW-620 colon, with LXFL 529 NSCLC and in the experiment on DLD-1 colon was more than 100 µM throughout.

For `N#C/C(=C\c1ccccc1Br)C(=O)c1ccccc1`, the TGI with UACC-257 melanoma is more than 100 µM; in the experiment on NCI-H460 lung it was more than 100 µM; with NCI-H522 lung, more than 100 µM; in the experiment on NCI-H23 lung it was more than 62.2 µM; in the experiment on KM20L2 colon, more than 100 µM; in the experiment on SF-268 CNS, more than 85.4 µM. In addition, the TGI was more than 100 µM with DMS 273 small cell lung, more than 45.7 µM in the experiment on SW-620 colon and more than 58.3 µM in the experiment on LXFL 529 NSCLC.

Regarding `CC(=O)CC(=O)/C=C/c1cccs1`, the TGI in the experiment with UACC-257 melanoma, with NCI-H460 lung, with NCI-H522 lung, in the experiment on NCI-H23 lung, with KM20L2 colon and in the experiment with SF-268 CNS was more than 100 µM throughout. For the same compound, the TGI with IGROV1 ovarian, with SW-620 colon, in the experiment with LXFL 529 NSCLC and in the experiment with DLD-1 colon was more than 100 µM in each case.

Consider `CCOC(=O)NC(=O)c1c[nH]c(=O)[nH]c1=O`, for which the TGI with UACC-257 melanoma, in the experiment with NCI-H460 lung, in the experiment with NCI-H23 lung, with KM20L2 colon, with IGROV1 ovarian and in the experiment on DMS 273 small cell lung was more than 100 µM in each case. Moreover, the TGI in the experiment with SW-620 colon, with LXFL 529 NSCLC and with DLD-1 colon was more than 100 µM in each case.

For the origin of these results see PubChem BioAssay (NCI).
